Measured values taken from patent US9549964B2, “Diagnosis, prognosis, and treatment of kidney disease” (Beth Israel Deaconess Medical Center, Inc., priority 2011, dated 2017).
Residues, ends and D or L forms follow the SMILES beside them.

Tests used:
human serum albumin = assay: Prevention of albumin carbamylation by cyanate in the presence of competing nucleophiles (% C-Alb by LC-MS); conditions: 10 mM scavenger, 0.25 mM cyanate, 37° C., 14 hours; for % CarbAlb Average +/− SD / % Decrease compared to no inhibitor: human serum albumin 4 mg/ml
Experimental: The pH of each was adjusted to pH 7.4 using HCl. HSA (4 mg/mL) was added to each amino acid solution, and then mixed 1:1 with 0.5 mM potassium cyanate in 100 mM potassium phosphate pH 7.4 (0.25 mM cyanate final concentration). […] Desalted albumin was then denatured and digested for analysis as described above.
To this, we added 0.25 mM cyanate, incubated at 37° C. for 14 hours, and analyzed for % C-Alb thereafter (Table 11).

[1] = Cyanate titration of an equimolar amino acid mixture (susceptibility of amino acids to carbamylation); conditions: increasing cyanate, physiological buffer pH 7.4, overnight 37° C.
Experimental: Carbamylation titration experiments were performed using an amino acid standard mix from Sigma Aldrich (Cat. No. AAS18) supplemented with tryptophan, cysteine, and glutamine; all amino acids were equimolar (2.5 mM stock). The 0.1 N HCl in the standard solution was neutralized with ammonium hydroxide and removed by lyophilization, and the dried amino acids were diluted to final concentration of 50 μM (each) in 100 mM potassium phosphate pH 7.4. […] Carbamylation was halted with addition of 1 M HCl, and excess cyanate and HCl were removed by vacuum lyophilization at room temperature. Isotopic standards were then mixed with the reactions, the tube were re-lyophilized, and amino acid mixtures were then S-alkylated with iodoacetamide, butylated with butanolic HCl, and analyzed using methods similar to those described for serum amino acids.
To differentiate the isocyanate-scavenging ability of individual amino acids, we added increasing concentrations of cyanate to an equimolar mixture of all twenty amino acids in a physiological buffer. As expected, increasing concentration of cyanate produced linear increases of all carbamylated amino acids and depletion of their unmodified forms (FIGS. 9A and 9B). From the titration curves, we calculated the cyanate concentration at which 10% unmodified amino acid forms were depleted.

% Decrease compared to no inhibitor (human serum albumin) [%] | SMILES | % CarbAlb Average +/− SD (human serum albumin) [%] | Susceptibility to carbamylation / cyanate binding (in words) [1] | Prevention of C-Alb formation / cyanate scavenging (in words) (human serum albumin)
 | C[C@H](N)C(=O)O [Alanine] | 32 ± 1.7 |  | 
 | N=C(N)NCCC[C@H](N)C(=O)O [Arginine] | 27 ± 1.6 | prone to carbamylation at low cyanate concentrations | 
 | N[C@@H](CS)C(=O)O [Cysteine] | 23 ± 1.9 | very high cyanate binding avidity by the free thiol group | prevented C-Alb formation
3 | N[C@@H](CCC(=O)O)C(=O)O [Glutamate] | 38 ± 1.2 |  | 
 | NC(=O)CC[C@H](N)C(=O)O [Glutamine] | 32 ± 2.9 |  | 
 | N[C@@H](CCC(=O)N[C@@H](CS)C(=O)NCC(=O)O)C(=O)O [Glutathione] | 29 ± 1.4 |  | 
 | NCC(=O)O [Glycine] | 31 ± 1.8 |  | 
 | NCC(=O)NCC(=O)O [Glycylglycine] (H-Gly-Gly-OH) |  | more strongly carbamylated than glycine or other amino acids | 
 | N[C@@H](Cc1c[nH]cn1)C(=O)O [Histidine] | 26 ± 1.0 | prone to carbamylation at low cyanate concentrations | 
 | CC(C)C[C@H](N)C(=O)O [Leucine] | 37 ± 2.2 |  | 
 | O=C(O)[C@@H]1CCCN1 [Proline] | 34 ± 1.6 |  | 
 | NCCS(=O)(=O)O [Taurine] | 22 ± 1.7 |  | effectively scavenged cyanate
 | N[C@@H](Cc1c[nH]c2ccccc12)C(=O)O [Tryptophan] | 32 ± 2.7 |  | 
16 | CC(C)[C@H](N)C(=O)O [Valine] | 33 ± 1.1 |  | 

SMILES | % Decrease compared to no inhibitor (human serum albumin) [%] | % CarbAlb Average +/− SD (human serum albumin) [%] | Susceptibility to carbamylation / cyanate binding (in words) [1] | Prevention of C-Alb formation / cyanate scavenging (in words) (human serum albumin)
NCCCC[C@H](N)C(=O)O [Lysine] | 21 | 31 ± 0.9 | did not avidly bind cyanate | 
